The NIST ThermoML archive (doi:10.1016/j.tca.2014.05.033)
Values joined by “and” are separate entries in the source; they are usually repeats but may differ in a detail not shown here. Equal values may be shown once.

Columns and labels:
[1] = molar enthalpy of vaporization or sublimation; conditions: 298.15 K, DSC
[2] = Transpiration method

c1ccc(-c2cccc3ccccc23)cc1 [1-phenylnaphthalene]
Conditions	molar enthalpy [kJ/mol]
[1], Liquid	82.7

[2], Liquid
Conditions	vapor or sublimation pressure
318.5 K	0.00026 kPa
323.5 K	0.00038 kPa
328.3 K	0.00062 kPa
328.4 K	0.0006 kPa
333.4 K	0.00092 kPa
338 K	0.00136 kPa
343.6 K	0.00209 kPa and 0.0021 kPa
351 K	0.00376 kPa
353.1 K	0.00462 kPa
358.3 K	0.00644 kPa
358.5 K	0.00687 kPa
363 K	0.00953 kPa
368.3 K	0.01352 kPa
371 K	0.01665 kPa

c1ccc(-c2ccccc2-c2ccccc2)cc1 [o-terphenyl]
Conditions	molar enthalpy [kJ/mol]
[1], Crystal	106

[2], Liquid
Conditions	vapor or sublimation pressure [kPa]
343.5 K	0.00166
345.5 K	0.00195
346.4 K	0.0021
348.4 K	0.0025
349.5 K	0.0027
351.5 K	0.00315
352.5 K	0.00339
355.4 K	0.00427
358.4 K	0.00528
360.4 K	0.0062
361.4 K	0.00658
361.5 K	0.00664
363.2 K	0.00752
365.4 K	0.00888
366.4 K	0.00943
368.4 K	0.01095
369.4 K	0.01187
371.4 K	0.01363
373.3 K	0.01527
374.4 K	0.01677
376.3 K	0.01869
377.4 K	0.02037

c1ccc2c(c1)ccc1ccccc12 [phenanthrene]
Conditions	molar enthalpy [kJ/mol]
[1], Crystal 2	92.3

[2]
Conditions	vapor or sublimation pressure [kPa]
306.2 K, Crystal 2	5e-05
309.4 K, Crystal 2	7e-05
313.2 K, Crystal 2	0.00012
316.3 K, Crystal 2	0.00016
319.3 K, Crystal 2	0.00021
322.3 K, Crystal 2	0.00031
325.2 K, Crystal 2	0.00043
328.4 K, Crystal 2	0.00055
329.2 K, Crystal 2	0.00063
330.7 K, Crystal 2	0.00073
334.2 K, Crystal 2	0.00101
337.2 K, Crystal 2	0.00135
340.3 K, Crystal 2	0.00178
343.4 K, Crystal 2	0.00229
346.3 K, Crystal 2	0.00306
349.4 K, Crystal 1	0.00403
352.4 K, Crystal 1	0.00545
355.5 K, Crystal 1	0.00705
356.8 K, Crystal 1	0.0076
358.6 K, Crystal 1	0.00914
359.2 K, Crystal 1	0.00907
362.3 K, Crystal 1	0.01171
365.3 K, Crystal 1	0.01534
368.3 K, Crystal 1	0.01988
370.4 K, Crystal 1	0.02298
